Experiment [1] deals with MT4. The experiment is described as follows: Cytotoxicity by the MTT assay in MT-4 cells at a dose of 100 ug/ml; No significant activity. It is filed as functional, cell-based. As to conditions: Homo sapiens. (Formazan colour is commonly taken as a measure of viable cells.)
Experiment [2] deals with MT4. As to the kind of experiment: Antiviral activity expressed as ability to prevent the HIV-induced cytopathic effect in MT-4 cells at a dose of 100 ug/ml; No significant activity. The class given is functional, cell-based. The following applies: Homo sapiens. A general note: Protection from cytopathic effect is a common read-out in antiviral testing.

Experimental findings from ChEMBL document CHEMBL1152050, “Asymmetric synthesis of enantiomerically pure 4-fluoroalkyl-2,3-dideoxy nucleosides” (Bioorg Med Chem Lett, 1994) are described below.

As for `Cc1cn(C2CC[C@](CO)(CF)O2)c(=O)[nH]c1=O` (single isomer, unassigned), the Activity entry with MT4 [1] and in the experiment with MT4 [2] was “No significant activity” each time.
Regarding `Cc1cn([C@@H]2CCC(CO)(CF)O2)c(=O)[nH]c1=O` (single isomer, unassigned), the Activity result in the experiment with MT4 [1] and in the experiment on MT4 [2] was “No significant activity” in each case.
